For four compounds, IC50, AC50 and EC50 results are on record in ChEMBL document CHEMBL1201862, “PubChem BioAssay data set” (2004).

One assay has as its target T1, Aminopeptidase N (Plasmodium falciparum FcB1/Columbia, UniProt O96935).
T1 sequence (O96935 whole entry): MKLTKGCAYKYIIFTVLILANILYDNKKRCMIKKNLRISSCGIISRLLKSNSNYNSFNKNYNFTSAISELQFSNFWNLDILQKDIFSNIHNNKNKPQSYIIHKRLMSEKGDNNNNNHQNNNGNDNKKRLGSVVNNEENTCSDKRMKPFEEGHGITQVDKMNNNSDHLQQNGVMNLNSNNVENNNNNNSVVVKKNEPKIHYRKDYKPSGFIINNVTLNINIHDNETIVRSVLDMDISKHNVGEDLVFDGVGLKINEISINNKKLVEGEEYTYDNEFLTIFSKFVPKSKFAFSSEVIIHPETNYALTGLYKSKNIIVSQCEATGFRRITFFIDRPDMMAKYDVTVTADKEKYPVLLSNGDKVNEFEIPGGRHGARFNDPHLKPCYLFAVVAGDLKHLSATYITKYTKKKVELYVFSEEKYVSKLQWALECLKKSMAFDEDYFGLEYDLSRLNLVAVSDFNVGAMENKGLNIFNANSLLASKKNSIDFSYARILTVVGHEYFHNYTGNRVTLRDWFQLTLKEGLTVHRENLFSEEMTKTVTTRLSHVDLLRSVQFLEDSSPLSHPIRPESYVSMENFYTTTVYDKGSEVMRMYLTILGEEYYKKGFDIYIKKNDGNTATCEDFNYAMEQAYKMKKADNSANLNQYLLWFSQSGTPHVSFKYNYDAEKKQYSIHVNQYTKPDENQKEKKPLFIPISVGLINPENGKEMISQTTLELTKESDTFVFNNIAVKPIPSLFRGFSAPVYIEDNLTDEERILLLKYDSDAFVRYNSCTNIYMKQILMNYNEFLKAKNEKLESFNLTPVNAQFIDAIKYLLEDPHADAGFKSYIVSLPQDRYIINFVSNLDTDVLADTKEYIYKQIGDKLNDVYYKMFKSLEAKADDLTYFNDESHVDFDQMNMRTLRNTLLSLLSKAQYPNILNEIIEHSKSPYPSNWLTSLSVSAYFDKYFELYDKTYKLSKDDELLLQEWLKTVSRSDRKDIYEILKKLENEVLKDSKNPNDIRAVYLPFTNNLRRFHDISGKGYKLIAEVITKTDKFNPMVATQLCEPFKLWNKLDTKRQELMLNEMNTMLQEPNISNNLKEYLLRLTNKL
Briefly: P. falciparum M1AAP inhibitors, biochemical, fluorogenic H-Leu-NHMec substrate, 1536-well (AID 1445). The arrangement: species or system Plasmodium falciparum 3D7, 3D7.

The next assay has as its target Large T antigen (Simian virus 40, UniProt P03070). The class given is functional, Betapolyomavirus macacae.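 Further: Confirmatory-stage PubChem screen for compounds that inhibit SV40 T antigen.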
A further assay concerns the target T2, Leucine aminopeptidase (Plasmodium falciparum 3D7, UniProt Q8IL11).
T2 sequence (Q8IL11 whole entry): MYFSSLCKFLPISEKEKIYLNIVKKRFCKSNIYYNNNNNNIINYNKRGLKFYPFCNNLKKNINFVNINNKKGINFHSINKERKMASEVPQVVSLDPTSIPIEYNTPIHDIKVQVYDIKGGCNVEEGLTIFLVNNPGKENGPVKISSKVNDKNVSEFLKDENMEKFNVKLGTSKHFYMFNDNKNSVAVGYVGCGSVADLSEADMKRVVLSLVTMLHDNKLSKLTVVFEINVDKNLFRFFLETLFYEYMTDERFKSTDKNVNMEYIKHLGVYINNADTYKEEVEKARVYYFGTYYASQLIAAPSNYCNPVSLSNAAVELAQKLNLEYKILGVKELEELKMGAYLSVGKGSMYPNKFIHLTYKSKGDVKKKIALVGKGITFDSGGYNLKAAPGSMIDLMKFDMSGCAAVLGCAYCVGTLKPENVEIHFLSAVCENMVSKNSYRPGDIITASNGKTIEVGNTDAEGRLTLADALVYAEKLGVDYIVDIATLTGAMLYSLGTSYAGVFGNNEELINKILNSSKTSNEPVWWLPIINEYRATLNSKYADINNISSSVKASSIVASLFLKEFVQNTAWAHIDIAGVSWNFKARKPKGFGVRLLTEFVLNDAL
Briefly: P. falciparum M17LAP inhibitors, primary screen, biochemical, fluorogenic H-Leu-NHMec substrate, 1536-well (AID 1619). The class given is functional.

Assay [1] has as its target Glucose-6-phosphate 1-dehydrogenase (Homo sapiens, UniProt P11413). The assay is described as follows: human G6PD enzyme inhibitors, dose response, selectivity assay for P. falciparum G6PD inhibitor project, biochemical, fluorescence (AID 504792). The class given is functional.
In assay [2] the target is T3, Mannose-6-phosphate isomerase (Homo sapiens, UniProt P34949).
T3 sequence (P34949 whole entry): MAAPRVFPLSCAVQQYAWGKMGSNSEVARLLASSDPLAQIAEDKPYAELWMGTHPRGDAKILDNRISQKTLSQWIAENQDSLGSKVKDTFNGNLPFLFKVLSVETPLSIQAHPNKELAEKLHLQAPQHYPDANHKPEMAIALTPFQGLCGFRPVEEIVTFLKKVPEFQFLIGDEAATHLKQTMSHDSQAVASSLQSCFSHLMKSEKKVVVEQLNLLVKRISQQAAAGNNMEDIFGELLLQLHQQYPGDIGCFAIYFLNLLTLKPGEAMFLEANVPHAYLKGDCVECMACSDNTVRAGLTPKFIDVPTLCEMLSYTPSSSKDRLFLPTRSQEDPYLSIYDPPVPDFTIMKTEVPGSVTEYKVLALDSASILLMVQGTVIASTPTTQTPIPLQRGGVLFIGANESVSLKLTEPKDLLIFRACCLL
The assay is described as follows: human PMI inhibitors, high substrate, primary screen, biochemical, fluorescence intensity, high mannose 6-phosphate (AID 1220).

The next assay concerns the target Procathepsin L (Homo sapiens, UniProt P07711).
The next assay has as its target T4, Aspartyl aminopeptidase (Plasmodium falciparum 3D7, UniProt Q8I2J3).
T4 sequence (Q8I2J3 whole entry): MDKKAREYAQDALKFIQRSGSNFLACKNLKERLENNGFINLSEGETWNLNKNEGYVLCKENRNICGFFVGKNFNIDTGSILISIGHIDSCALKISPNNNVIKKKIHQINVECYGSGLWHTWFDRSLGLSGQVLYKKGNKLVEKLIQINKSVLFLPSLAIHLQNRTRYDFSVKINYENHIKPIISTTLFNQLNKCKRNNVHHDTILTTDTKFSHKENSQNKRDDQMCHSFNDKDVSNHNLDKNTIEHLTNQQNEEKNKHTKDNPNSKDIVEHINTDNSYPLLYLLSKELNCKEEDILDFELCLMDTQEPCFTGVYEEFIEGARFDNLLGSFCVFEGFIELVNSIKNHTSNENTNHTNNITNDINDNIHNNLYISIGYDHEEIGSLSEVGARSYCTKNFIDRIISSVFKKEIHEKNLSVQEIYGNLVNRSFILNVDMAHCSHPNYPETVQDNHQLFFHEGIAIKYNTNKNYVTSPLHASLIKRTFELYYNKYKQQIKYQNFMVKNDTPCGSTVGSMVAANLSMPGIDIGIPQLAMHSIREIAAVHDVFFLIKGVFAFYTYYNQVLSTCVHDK

Assay [3] deals with T5, Histone-lysine N-methyltransferase NSD2 (Homo sapiens, UniProt O96028).
T5 sequence (O96028 whole entry): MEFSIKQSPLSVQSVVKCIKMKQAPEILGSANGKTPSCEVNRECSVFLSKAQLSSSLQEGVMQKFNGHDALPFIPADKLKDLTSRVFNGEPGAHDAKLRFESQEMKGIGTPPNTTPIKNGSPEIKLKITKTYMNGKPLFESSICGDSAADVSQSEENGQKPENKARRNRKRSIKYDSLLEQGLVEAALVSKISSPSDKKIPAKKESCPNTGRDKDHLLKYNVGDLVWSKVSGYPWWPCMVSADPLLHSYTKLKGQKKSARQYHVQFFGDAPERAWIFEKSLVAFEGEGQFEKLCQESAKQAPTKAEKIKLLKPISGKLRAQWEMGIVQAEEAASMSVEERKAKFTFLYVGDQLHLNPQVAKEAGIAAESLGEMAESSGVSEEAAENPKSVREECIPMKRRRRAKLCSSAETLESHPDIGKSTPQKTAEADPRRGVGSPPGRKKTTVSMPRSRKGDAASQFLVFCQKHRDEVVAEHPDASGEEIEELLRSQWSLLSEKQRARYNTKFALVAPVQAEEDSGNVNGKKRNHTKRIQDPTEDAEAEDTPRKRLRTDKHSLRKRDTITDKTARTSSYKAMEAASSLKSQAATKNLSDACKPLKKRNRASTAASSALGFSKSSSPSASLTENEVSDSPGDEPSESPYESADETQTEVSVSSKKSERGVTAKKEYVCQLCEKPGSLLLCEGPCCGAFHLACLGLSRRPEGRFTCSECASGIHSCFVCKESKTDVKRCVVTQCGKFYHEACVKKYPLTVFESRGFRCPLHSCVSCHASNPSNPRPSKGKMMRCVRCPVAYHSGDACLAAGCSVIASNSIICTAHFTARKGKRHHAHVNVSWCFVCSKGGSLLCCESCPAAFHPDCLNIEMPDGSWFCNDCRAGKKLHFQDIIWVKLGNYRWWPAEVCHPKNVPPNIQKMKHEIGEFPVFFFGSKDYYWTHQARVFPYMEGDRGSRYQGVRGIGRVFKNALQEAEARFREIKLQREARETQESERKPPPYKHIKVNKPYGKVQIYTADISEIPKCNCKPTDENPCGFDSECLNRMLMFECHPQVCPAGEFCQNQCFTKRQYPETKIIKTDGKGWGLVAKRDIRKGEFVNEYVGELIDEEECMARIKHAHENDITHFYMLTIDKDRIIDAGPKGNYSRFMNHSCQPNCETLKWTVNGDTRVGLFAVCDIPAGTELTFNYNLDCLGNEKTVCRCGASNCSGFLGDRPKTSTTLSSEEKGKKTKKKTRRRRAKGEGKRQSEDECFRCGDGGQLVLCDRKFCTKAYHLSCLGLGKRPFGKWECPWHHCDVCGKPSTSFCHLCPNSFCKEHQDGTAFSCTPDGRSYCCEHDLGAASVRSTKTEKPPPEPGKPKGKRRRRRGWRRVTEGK
It is filed as biochemical.

The nature of assay [4]: C. albicans growth with fluconazole, confirmation, fluorescence, retest (AID 2467). The class given is functional, cell-based.
Assay [5] can be described thus: NIH-3T3 fibroblast cytotoxicity, dose response, cytotoxicity control, cell-based, fluorescence, Alamar Blue, secondary assay (AID 2327).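 Further: NIH-3T3 mouse fibroblasts cultured with fluconazole at 8 µg/mL.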 It is filed as functional. In general terms: The colour change of resazurin is a common sign of viable cells or microbes.

Structures are written as SMILES. Activity calls are given as the source filed them.

Procathepsin L, sequence (P07711 whole entry): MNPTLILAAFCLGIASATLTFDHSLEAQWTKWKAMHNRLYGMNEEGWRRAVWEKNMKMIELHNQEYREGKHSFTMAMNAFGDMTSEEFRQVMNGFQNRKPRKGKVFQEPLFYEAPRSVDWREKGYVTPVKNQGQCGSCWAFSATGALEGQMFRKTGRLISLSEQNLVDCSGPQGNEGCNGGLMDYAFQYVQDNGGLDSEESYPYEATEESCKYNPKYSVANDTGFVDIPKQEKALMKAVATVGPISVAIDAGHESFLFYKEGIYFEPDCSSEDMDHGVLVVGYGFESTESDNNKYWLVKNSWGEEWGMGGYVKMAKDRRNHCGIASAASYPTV
Large T antigen, sequence (P03070 whole entry): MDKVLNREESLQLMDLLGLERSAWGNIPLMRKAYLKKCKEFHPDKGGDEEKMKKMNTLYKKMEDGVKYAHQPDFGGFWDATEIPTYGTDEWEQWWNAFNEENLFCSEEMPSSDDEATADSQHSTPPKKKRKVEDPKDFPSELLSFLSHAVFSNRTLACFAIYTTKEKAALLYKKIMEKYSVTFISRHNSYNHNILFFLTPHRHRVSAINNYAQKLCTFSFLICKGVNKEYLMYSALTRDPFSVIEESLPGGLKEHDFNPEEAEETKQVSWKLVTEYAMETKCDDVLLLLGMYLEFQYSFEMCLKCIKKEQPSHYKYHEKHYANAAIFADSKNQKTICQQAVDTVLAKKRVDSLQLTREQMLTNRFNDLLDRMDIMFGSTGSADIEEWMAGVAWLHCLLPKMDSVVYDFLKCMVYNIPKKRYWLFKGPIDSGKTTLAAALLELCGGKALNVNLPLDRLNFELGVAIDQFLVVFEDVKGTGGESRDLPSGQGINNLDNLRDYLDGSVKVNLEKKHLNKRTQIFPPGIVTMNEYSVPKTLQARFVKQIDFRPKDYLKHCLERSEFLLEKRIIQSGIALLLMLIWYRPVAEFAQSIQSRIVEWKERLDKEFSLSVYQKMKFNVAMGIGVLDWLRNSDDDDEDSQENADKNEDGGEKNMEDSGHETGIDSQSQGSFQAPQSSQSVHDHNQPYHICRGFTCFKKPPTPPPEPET
Glucose-6-phosphate 1-dehydrogenase, sequence (P11413 whole entry): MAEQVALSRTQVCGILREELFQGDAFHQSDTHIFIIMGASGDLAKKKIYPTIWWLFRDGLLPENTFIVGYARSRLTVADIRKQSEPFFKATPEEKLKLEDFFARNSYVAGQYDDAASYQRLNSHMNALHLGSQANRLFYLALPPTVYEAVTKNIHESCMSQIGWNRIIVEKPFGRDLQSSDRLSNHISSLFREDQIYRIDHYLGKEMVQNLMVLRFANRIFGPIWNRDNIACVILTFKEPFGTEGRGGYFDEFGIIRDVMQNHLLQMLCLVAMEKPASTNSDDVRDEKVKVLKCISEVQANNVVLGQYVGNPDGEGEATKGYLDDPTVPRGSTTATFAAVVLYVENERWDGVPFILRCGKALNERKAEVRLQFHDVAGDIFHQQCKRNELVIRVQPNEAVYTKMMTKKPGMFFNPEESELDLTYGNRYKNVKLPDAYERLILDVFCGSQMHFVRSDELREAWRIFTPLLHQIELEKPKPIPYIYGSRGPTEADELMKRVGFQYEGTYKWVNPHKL

`CCOc1cc(/C=C2\N=C(SC)SC2=O)cc([N+](=O)[O-])c1OC(C)=O`: the IC50 on Aminopeptidase N was 26.5 µM (active).
As for `COc1cc(/C=C2\SC(=S)N(NS(=O)(=O)c3ccc(C)cc3)C2=O)ccc1O`, the IC50 at Aminopeptidase N is 19.2 µM (active); at Large T antigen it was 10.1 µM (active); at Leucine aminopeptidase it was 27.1 µM (active).
As to `C[C@]12CC[C@@H]3c4ccc(O)c(O)c4CC[C@H]3[C@@H]1CC[C@@H]2O`, the IC50 in [1] was 29.1 µM (inactive); in [2], 29 µM (active); against Procathepsin L, > 59.6 µM (not active); at Aspartyl aminopeptidase it was 1.22 µM (active).
For `COc1cccc2c(SCC(=O)N/N=C/c3ccc(O)c(O)c3)cc(C)nc12`, in [3], the AC50 was 10.4 µM (active). Also, the IC50 against Procathepsin L is > 59.6 µM (not active); at Leucine aminopeptidase, 16.2 µM (active); on Aspartyl aminopeptidase, 2.01 µM (active). Further, the results for the EC50 in assay [4] and in assay [5] were > 38 µM (not active) and 26.3 µM (active), respectively.

The term IC50 denotes the concentration that inhibits the measured activity by half. As a reminder, the AC50 is the concentration at which the activity in the assay is half-maximal. What is called EC50 is the concentration needed to bring the measured effect to its halfway point.
